According to US20250179057A1, “MEK IMMUNE ONCOLOGY INHIBITORS AND THERAPEUTIC USES THEREOF” (Immuneering Corporation, priority 2022, published 2025):
“And” between values parts separate entries of the source, which are not always exact repeats. Equal values may be shown once.

How the values were obtained:
[1] = tested on: phospho-ERK in A549 (KRAS G12S) cells; experiment: Cell-based pERK (pERK:tERK) in A549 cells; design: A549-pERK 10 uM, 2 h: unit not given here; details: for A549-pERK (10 nM, 2 h): phospho- to total protein ratio normalized to DMSO control (Table 9)
Method: Media components, reagents and buffers for Western Blot: All cell culture media components were obtained from ThermoFisher Scientific. […] Laemmli sample loading 4× buffer (ThermoFisher Scientific, Cat No. NP0007). MOPS/SDS electrophoresis running buffer (GenScript, Cat No. M00138).
Subculture conditions: Adherent cells were grown to approximately 90% confluency, culture medium was aspirated and the cell layer was rinsed with PBS. […] Eight mL media was added, cells were spun down at 1000×g for 5 minutes. Cell pellet was re-suspended in 10 mL media and an appropriate volume was inoculated into a new culture flask.
Compound (drug) treatment: Cells were plated in a 6-well plate at a density of 250,000-300,000 cells/well in 3 mL media and incubated 37° C. in a humidified, 5% CO2 incubator. […] These solutions were added to the cells (3 uL/well), mixed by swirling the plate, and incubated at 37° C. in a humidified, 5% CO2 incubator for 2 hours.
Cell lysis and protein estimation: Cells were washed with PBS, and scraped in 50 μL of lysis buffer containing protease and phosphatase inhibitors. Cell lysates were stored at −20° C. Cell lysates were thawed and spun at 12,000 rpm for one minute, 3 ul of the supernatant was added to 500 μL of Coomassie blue reagent following by 500 μL of water. […] Protein standards were used (0-20 mg/mL) to calculate protein concentrations of test samples.
All samples were heated at 95° C. for 5 minutes, cooled to room temperature and spun down. […] After the run, gel was removed and protein transfer was done using iBlot for 7 minutes, as per manufacturer's recommendations. After the transfer, nitrocellulose membrane was incubated on a shaker in 5 mL of blocking buffer at room temperature for 1 hr. The blot was then incubated overnight on a shaker in 5 ml of blocking buffer containing 0.2% Tween-20 and primary antibody, at room temperature. Anti-phospho-STAT3 antibody was used at a dilution of 1:500, the other 3 primary antibodies were used at a dilution of 1:1000.
Next day, the blot was washed 3 times for 10 min each with 10 mL of TBST followed by incubation on a shaker in 5 ml of blocking buffer containing 0.2% Tween-20 and 0.5 ul of the IRDye labeled secondary antibodies, diluted 1:10000, at room temperature for 1 hr. The blot was then washed 3 times for 10 min each with 10 mL of TBST and dried between sheets of paper towels. Imaging was done using LICOR's Odyssey imaging system, quantitation was done using their software, Image Studio version 3.1.
(§1) Materials and Methods: A549 or A375 cells were seeded in 6-well plates at an appropriate seeding density on day 0. On day 2 or 3, after checking the health and confluency of cells, the media was aspirated and replaced with 1 mL media containing a predetermined concentration of compound and incubated for 2 hours. After 2 hours, the media was aspirated, and the cells washed 2 times with cold PBS. Cells were lysed on ice, with 50 uL 1×CST lysis buffer +1 mM PMSF for 5 minutes. After 5 minutes, cells were removed using a scraper and transferred to cold 1.5 mL tubes, and centrifuged for 10 min, 4° C., 14,000×g. Supernatant was gently removed and snap frozen in liquid nitrogen. Protein concentration of the lysate was determined using Bradford Reagent (analyzed using SpectraMax M2E) and diluted to 1 mg/mL or pERK or 1.5 mg/mL for pMEK analysis. […] All dilutions were in Milk-free antibody diluent.
They were grown in T75 flasks in DMEM containing 10% FBS and Pen-Strep. at 37° C. in a humidified, 5% CO2 incubator. The adherent cells were grown to about 90% confluency, culture medium was aspirated, and the cell layer was rinsed with PBS. […] Eight mL media was added, cells were spun down at 1000 g for 5 minutes. Cell pellet was re-suspended in 10 mL media and an appropriate volume was inoculated into a new culture flask. Cells were plated in a 6-well plate at a density of 250,000-300,000 cells/well in 3 mL media and incubated 37° C. in a humidified, 5% CO2 incubator.

[2] = tested on: phospho-MEK in A549 cells; experiment: Cell-based pMEK (pMEK:tMEK, CRAF bypass) in A549 cells; details: 2 h, pMEK to total MEK normalized to DMSO control
Method: as §1
(§2) A549 or […] cells were treated in duplicate for two hours with compounds at varying concentrations. After two hours, the cells were lysed, snap frozen, and stored at −80° C. After storage, the lysate was quantified with the Bradford assay. Before the lysates were prepared to run on the Jess, the lysates were diluted to 1 mg/mL for pERK analysis and 1.5 mg/mL pMEK analysis using quantitative Western blotting. ERK and MEK phosphorylation levels were estimated by taking the ratio of phospho-protein to total protein and normalizing to the DMSO control.
as §2

Row | SMILES | A549-pERK (10 nM, 2 h) ([1]; 2 h) | A549-CRAF BP 100 nM, 2 h [2] | pERK:tERK (10 nM 2 h A549) ([1]; Phospho-ERK Screen in A549 (KRAS G12S), head 10 nM 2 h, title 10 μM for 2 hours) | A549-pERK 10 uM, 2 h ([1]; 10 uM, 2 h, phospho- to total protein ratio normalized to DMSO control)
1 | CNS(=O)(=O)Nc1cccc(Cc2c(CN3CC(OC)C3)c3ccc(OC(=O)N(C)C)cc3oc2=O)c1F [Compound 74] | 75.3 | 59.2 | – | –
2 | CNS(=O)(=O)Nc1nccc(Cc2c(CN(C)C)c3cc(F)c(OC(=O)N(C)C)cc3oc2=O)c1F [Compound 140] | 65.0 | 70.3 | – | –
3 | Cc1c(Cc2cccc(NS(=O)(=O)C(C)C)c2F)c(=O)oc2cc(OC(=O)N(C)C)ccc12 [Compound 115] | 13.5 | 39.2 (mean, n = 2) | – | –
4 | Cc1c(Cc2ccnc(NS(=O)(=O)C3CCC3)c2F)c(=O)oc2cc(OC(=O)N(C)C)ccc12 [Compound 125] | 54.4 | 41.7 | – | –
5 | CNS(=O)(=O)Nc1cccc(Cc2c(CN(C)C3CC3)c3ccc(OC(=O)N(C)C)cc3oc2=O)c1F [Compound 82] | 64.9 | 72.3 | – | –
6 | CNS(=O)(=O)Nc1cccc(Cc2c(CN(C)CC#N)c3ccc(OC(=O)N(C)C)cc3oc2=O)c1F [Compound 87] | 63.8 | 95.8 | – | –
7 | CNS(=O)(=O)Nc1cccc(Cc2c(CNCC#N)c3ccc(OC(=O)N(C)C)cc3oc2=O)c1F [Compound 33] | 55.4 | 51.4 | – | –
8 | CNS(=O)(=O)Nc1cccc(Cc2c(CN(C)Cc3ccccc3)c3ccc(OC(=O)N(C)C)cc3oc2=O)c1F [Compound 80] | 56.4 | 56.1 | – | –
9 | CCS(=O)(=O)Nc1cccc(Cc2c(CN3CCNCC3)c3cc(Cl)c(OC(=O)N(C)C)cc3oc2=O)c1F [Compound 147] | 21.7 | 46.4 | 28 (n = 2) | –
10 | CNS(=O)(=O)Nc1cccc(Cc2c(CN(C)CC3CCC3)c3ccc(OC(=O)N(C)C)cc3oc2=O)c1F [Compound 88] | 142 | 53.6 | – | –
11 | CCN(CC)Cc1c(Cc2cccc(NS(=O)(=O)NC)c2F)c(=O)oc2cc(OC(=O)N(C)C)ccc12 [Compound 73] | 77.7 | 33.9 | – | –
12 | Cc1c(Cc2ccnc(NS(=O)(=O)C3CC3)c2F)c(=O)oc2cc(OC(=O)N(C)C)ccc12 [Compound 112] | 46.3 | 52.9 (mean, n = 2) | – | –
13 | CNS(=O)(=O)Nc1cccc(Cc2c(CN(C)c3ccccc3)c3ccc(OC(=O)N(C)C)cc3oc2=O)c1F [Compound 79] | 49.4 | 45.2 and 64.9 | – | –
14 | CCS(=O)(=O)Nc1nccc(Cc2c(C)c3ccc(OC(=O)N(C)C)cc3oc2=O)c1F [Compound 119] | 64.8 | 66.1 | – | –
15 | CCS(=O)(=O)Nc1nccc(Cc2c(CN(C)C)c3ccc(OC(=O)N(C)C)cc3oc2=O)c1F [Compound 148] | 49.6 | 56.5 | – | –
16 | CNS(=O)(=O)Nc1cccc(Cc2c(CN(C)CC3CC3)c3ccc(OC(=O)N(C)C)cc3oc2=O)c1F [Compound 84] | 83.2 | 87.3 | – | –
17 | CNS(=O)(=O)Nc1nccc(Cc2c(C)c3cc(Cl)c(OC(=O)N(C)C)cc3oc2=O)c1F [Compound 111] | 4.63 | 48.6 (mean, n = 2) | – | –
18 | CNS(=O)(=O)Nc1cccc(Cc2c(CN3CC4(CCC4)C3)c3ccc(OC(=O)N(C)C)cc3oc2=O)c1F [Compound 153] | 50.2 | 54.1 | – | –
19 | CCCN(C)Cc1c(Cc2cccc(NS(=O)(=O)NC)c2F)c(=O)oc2cc(OC(=O)N(C)C)ccc12 [Compound 81] | 57.6 | 78.3 | – | –
20 | C#CCNCc1c(Cc2cccc(NS(=O)(=O)NC)c2F)c(=O)oc2cc(OC(=O)N(C)C)ccc12 [Compound 14] | 64 | 59.1 | – | –
21 | CNS(=O)(=O)Nc1nccc(Cc2c(C)c3cc(C)c(OC(=O)N(C)C)cc3oc2=O)c1F [Compound 110] | 5.92 | 56.6 (mean, n = 2) | – | –
22 | CNS(=O)(=O)Nc1cccc(Cc2c(CN(C)CC(C)C)c3ccc(OC(=O)N(C)C)cc3oc2=O)c1F [Compound 78] | 78.6 | 64.2 | – | –
23 | CNS(=O)(=O)Nc1cccc(Cc2c(CN(C)C)c3ccc(OC(=O)N4CCC4)cc3oc2=O)c1F [Compound 128] | 66.3 | 37.7 | – | –
24 | Cc1c(Cc2ccnc(NS(=O)(=O)C(C)C)c2F)c(=O)oc2cc(OC(=O)N(C)C)ccc12 [Compound 114] | 36.6 | 59.9 (mean, n = 3) | – | –
25 | CNS(=O)(=O)Nc1cccc(Cc2c(C)c3cc(Cl)c(OC(=O)N(C)C)cc3oc2=O)c1F [Compound 109] | 4.51 | 41.9 (mean, n = 2) | – | –
26 | C#CCNCCc1c(Cc2cccc(NS(=O)(=O)NC)c2F)c(=O)oc2cc(OC(=O)N(C)C)ccc12 [Compound 183] | 32.4 | 65.9 (mean, n = 2) | – | 0.82
27 | Cc1c(Cc2cccc(NS(=O)(=O)C3CC3)c2F)c(=O)oc2cc(OC(=O)N(C)C)ccc12 [Compound 113] | 24.7 | 48.0 (mean, n = 2) | – | –
28 | CNS(=O)(=O)Nc1cccc(Cc2c(CN(C)c3ccc(Cl)cc3)c3ccc(OC(=O)N(C)C)cc3oc2=O)c1F [Compound 97] | 56.5 | 52.1 (mean, n = 2) | – | –
29 | CNS(=O)(=O)Nc1cccc(Cc2c(C)c3cc(C)c(OC(=O)N(C)C)cc3oc2=O)c1F [Compound 108] | 5.78 | 47.9 (mean, n = 2) | – | –
30 | CCS(=O)(=O)Nc1cccc(Cc2c(C)c3ccc(OC(=O)N(C)C)cc3oc2=O)c1F [Compound 107] | 18.0 | 39.9 | – | –
